According to PMC5007466, “VCP recruitment to mitochondria causes mitophagy impairment and neurodegeneration in models of Huntington's disease” (Nature Communications, 2016):

Columns and labels:
R6/2 mice [1] = assay: VCP mitochondrial level, R6/2 mouse striatum; assay type: in vivo; conditions: R6/2, 3 mg kg^−1 per day from 5 to 9 weeks versus TAT, n=6
Method: Cells were washed with cold PBS and incubated on ice for 30 min in a lysis buffer (250 mM sucrose, 20 mM HEPES-NaOH, pH 7.5, 10 mM KCl, 1.5 mM MgCl2, 1 mM EDTA, protease inhibitor cocktail and phosphatase inhibitor cocktail). Mouse brains were minced and homogenized in the lysis buffer and then placed on ice for 30 min. Collected cells or tissue were disrupted 20 times by repeated aspiration through a 25-gauge needle, followed by a 30-gauge needle. The homogenates were spun at 800 g for 10 min at 4 °C, and the resulting supernatants were spun at 10,000 g for 20 min at 4 °C. The pellets were washed with lysis buffer and spun at 10,000 g again for 20 min at 4 °C. The final pellets were suspended in lysis buffer containing 1% Triton X-100 and were mitochondrial-rich lysate fractions. The supernatant was centrifuged at 100,000 g, 4 °C, for 1 h, the pellets were suspended in lysis buffer containing 1% Triton X-100 as ER fractions. The final supernatant was cytosolic fractions. The mitochondrial proteins VDAC, the ER protein WFS1 and the cytosolic protein Enolase were used as loading controls for mitochondrial, ER and cytosolic fractions, respectively.
Male R6/2 mice and their wt littermates (4 weeks old) were purchased from Jackson Laboratories (Bar Harbor, ME; B6CBA-TgN (HD exon 1)62; JAX stock number: 006494). […]
Protein concentrations were determined by Bradford assay. […]

R6/2 mice [2] = assay: Hindlimb clasping (tail suspension test); assay type: in vivo, mouse; conditions: R6/2, 8 to 11 weeks of age, 3 mg kg^−1 per day, n=15, versus TAT
Method: Male hemizygous R6/2 mice (Tg) and their age-matched wt littermates (5-week-old) were implanted with a 28-day osmotic pump (Alzet, Cupertino CA) containing TAT control peptide or HV-3 peptide, which delivered peptides to the mice at a rate of 3 mg kg^−1 per day. The first pump was implanted subcutaneously in the back of 5-week-old mice between the shoulders and replaced once, after 4 weeks.
Hindlimb clasping was assessed with the tail suspension test once a week from the ages 8 to 11 weeks in R6/2 mice. Mice were suspended by the tail for 60 s and the latency for the hindlimbs or all four paws to clasp was recorded using the score system[67]: Clasping over 10 s, score 3; 5–10 s, score 2; 0–5 s, score 1; 0 s, score 0.

YAC128 mice = assay: Rotarod performance; assay type: in vivo, mouse; conditions: YAC128, 3 mg/kg/day from 3 months; from 6 to 12 months of age, n=15–20
Source text: YAC128 (FVB-Tg(YAC128)53Hay/J, JAX stock number: 004938) breeders (FVB/N genetic background) were purchased from Jackson Laboratories. The YAC128 mice contain a full-length human huntingtin gene modified with a 128 CAG repeat expansion in exon 1. The mice were mated, bred and genotyped in the animal facility of Case Western Reserve University. Male mice at the ages of 2, 3, 6, 9 and 12 months were used in the study.
YAC128 mice (Tg) and their age-matched wt littermates were implanted with an osmotic pump containing TAT control peptide or HV-3 peptide (3 mg/kg/day, each) starting from the age of 3 months. The pump was replaced once every month. By the age of 12 months, the treatments were terminated and the mouse samples were harvested for analysis.
The motor coordination and balance of YAC128 mice were tested on an accelerating Rotarod (IITC Life Sciences, Serials 8) at the ages of 2, 3, 6, 9 and 12 months. Training and baseline testing for motor function tasks were conducted at 2 months of age. For training, mice were given three 120-s trials per day at a fixed-speed of 15 r.p.m. for three consecutive days. During the testing phase, the Rotarod accelerated from 5 to 40 r.p.m. over 3 min; the maximum score was 300 s. Rotarod scores were the average of three trials per day (with 2 h rest between trials) for 3 consecutive days.

Structure (SMILES): CSCC[C@H](NC(=O)[C@@H](NC(=O)[C@H](CC(C)C)NC(=O)[C@@H](NC(=O)[C@H](Cc1c[nH]cn1)NC(=O)CCCCCNC(=O)[C@H](CCCNC(=N)N)NC(=O)[C@H](CCCNC(=N)N)NC(=O)[C@H](CCCNC(=N)N)NC(=O)[C@H](CCC(N)=O)NC(=O)[C@H](CCCNC(=N)N)NC(=O)[C@H](CCCNC(=N)N)NC(=O)[C@H](CCCCN)NC(=O)[C@H](CCCCN)NC(=O)[C@H](CCCNC(=N)N)NC(=O)CNC(=O)[C@@H](N)Cc1ccc(O)cc1)C(C)C)C(C)C)C(=O)N[C@@H](CS)C(=O)N[C@@H](C)C(=O)N[C@H](C(N)=O)[C@@H](C)O [HV-3]
- VCP translocation to mitochondria in striatum (R6/2 mice [1]): suppressed the VCP translocation to mitochondria
- severity of clasping behaviour (R6/2 mice [2]): significantly lower over the 4-week observation period
- rotarod performance (YAC128 mice): improved general movement activity and rotarod performance
